Experiment [1] deals with pds-bsα-bsβ VIGS petunia flowers. The experiment can be described thus: Emission of volatiles from pds-bsα-bsβ VIGS petunia flowers. It is filed as in vivo, Petunia hybrida. Conditions: 2-day-old VIGS flowers, volatiles collected 20:00 to 21:00, n=6. The method, then:
Petunia hybrida cv. Mitchell diploid (W115, Ball Seed Co., Oxford, Canada) plants were grown under standard greenhouse condition with a light period from 6:00 to 21:00 hour. To link the simultaneous downregulation of PhBSα and PhBSβ6 genes via virus induced gene silencing (VIGS) to the silencing of a marker gene, a previously generated pTRV2-PDS construct containing a 300 bp fragment of Nicotiana benthamiana Phytoene Desaturase (PDS) (CDS nucleotides 580˜879; SEQ ID NO: 11) was used (deposited with the National Center for Biotechnology Information (NCBI) GenBank and having the accession number DQ469932.1 (accepted Dec. 4, 2007)). See Spitzer et al., Reverse genetics of floral scent: Application of tobacco rattle virus-based gene silencing in petunia, Plant Physiology 145: 1241-1250 (2007). The N. benthamiana PDS fragment shared 94.3% sequence identity with P. axillaris PDS gene.
Next, a 301 bp fragment of PhBSα (CDS nucleotides 3˜303 of SEQ ID NO: 3) and a 301 bp fragment of PhBSβ6 (CDS nucleotides 3˜303 of SEQ ID NO: 4) were tandemly cloned downstream of the PDS fragment in a pTRV2-PDS plasmid using ClonExpress II One Step Cloning Kit (Vazyme Biotech Co., Piscataway, NJ), yielding the final construct pTRV2-PDS-PhBSαp.
All binary vectors, including pTRV1, deposited with the NCBI GenBank and having accession number AF406990 (accepted Jun. 11, 2002), pTRV2-PDS and pTRV2-PDS-PhBSαp, were transformed into Agrobacterium tumefaciens strain GV3101. Single colonies for each construct were cultured at 28° C. in Luria-Bertani (LB) medium containing 50 mg/L rifampicin, 50 mg/L gentamycin, and 50 mg/L kanamycin to an optical density at a wavelength of 600 nm (OD600) of 2.4.
Cells were pelleted, washed with infiltration buffer (50 mM MES, pH 5.7, 2 mM Na3PO4, 0.5% glucose and 200 μM acetosyringone), and incubated in the same buffer for 2 hours at room temperature. Yoo et al., An alternative pathway contributes to phenylalanine biosynthesis in plants via a cytosolic tyrosine:phenylpyruvate aminotransferase, Nature Communications 4: 2833 (2013). […]
Petunia flower volatiles were collected by a closed-loop stripping method and analyzed by gas chromatography mass spectrometry (GC-MS) as described in Qian et al., Completion of the cytosolic post-chorismate phenylalanine biosynthetic pathway in plants, Nature Communications 10: 15 (2019), with minor modifications. […] The extracts were pooled together and concentrated to about 200 μL under a mild stream of nitrogen gas, and samples were analyzed on an Agilent 7890B-5977B gas chromatography mass spectrometry (GC-MS) system (Agilent Technologies, Inc., Santa Clara, CA) using an analytical method translated from an established method with the Agilent 6890N-5975B GC-MS system as previously described. […]

The test system of experiment [2] is benzaldehyde synthase (BS) activity in petunia flower crude protein extracts. As to the kind of experiment: BS activity in petunia flower crude protein extracts with different substrates and cofactors (GC-MS). It is filed as biochemical, Petunia hybrida. Conditions: substance supplied as cofactor with benzoyl-CoA or in place of benzoyl-CoA; 30 minutes at 28° C. The protocol: The crude protein extracts were obtained by extraction of petunia petal tissue with buffer A (3:1 [v/w] buffer/tissue). After centrifugation of slurry at 15,000 g for 20 minutes, the supernatant was desalted with Econo-Pac 10DG Columns (Bio-Rad, Hercules, CA) according to the manufacturer's protocol and 20 μL of desalted protein was used in the activity assays. The reaction was performed for 30 minutes at 28° C. and the product was extracted with 200 μL DCM containing 1 μg naphthalene (internal standard). After centrifugation at 15,000 g for 20 minutes, 2 μL of the bottom DCM phase was injected in GC-MS, with results shown in FIG. 3A. The compounds labeled in FIG. 3A with numbers are (1) benzaldehyde, (2) benzylalcohol, (3) internal standard (naphthalene), and (4) benzylbenzoate and the different assay mixtures described above are identified with their above-associated letters.

Experiment [3] deals with T1, Solanum lycopersicum (tomato) benzaldehyde synthase (SlBS), recombinant heterodimer SlBSα (SEQ ID NO: 7) / SlBSβ (SEQ ID NO: 10), wild type, MBP-tagged (Solanum lycopersicum, UniProt A0A3Q7HAN1+A0A3Q7ILR9).
T1 sequence (A0A3Q7ILR9 with tags, fused parts or gaps): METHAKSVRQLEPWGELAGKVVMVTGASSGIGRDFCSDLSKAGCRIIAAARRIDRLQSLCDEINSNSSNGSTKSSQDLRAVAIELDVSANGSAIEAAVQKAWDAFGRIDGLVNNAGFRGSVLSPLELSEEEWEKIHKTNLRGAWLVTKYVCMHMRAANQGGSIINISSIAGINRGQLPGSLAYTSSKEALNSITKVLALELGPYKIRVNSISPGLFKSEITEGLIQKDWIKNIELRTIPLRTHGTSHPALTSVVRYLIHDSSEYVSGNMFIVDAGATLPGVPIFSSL
T1 sequence (A0A3Q7HAN1 1-266): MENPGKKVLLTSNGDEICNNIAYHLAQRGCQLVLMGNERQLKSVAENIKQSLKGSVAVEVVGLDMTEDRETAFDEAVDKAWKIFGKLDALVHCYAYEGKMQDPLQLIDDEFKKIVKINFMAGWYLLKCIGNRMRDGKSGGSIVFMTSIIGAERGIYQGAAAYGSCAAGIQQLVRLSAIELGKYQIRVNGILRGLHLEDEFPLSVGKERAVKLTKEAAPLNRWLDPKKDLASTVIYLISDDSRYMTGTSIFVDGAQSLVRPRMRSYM
The experiment can be described thus: Kinetic parameters of recombinant SlBS (BS activity assay, HPLC; benzoyl-CoA + NADPH to benzaldehyde). It is filed as biochemical. Conditions: measured at 4 mM NADPH; pH 6.5, 28° C. The method, then: (§1) The reaction was initiated by adding a protein and incubated at 28° C. for 30 minutes, and the reactions were then terminated by adding 100 μL of 100% ice-cold methanol (MeOH). The BS enzyme assays were performed at an appropriate enzyme concentration so that reaction velocity was proportional to enzyme concentration and linear during the incubation time period. Km and Vmax were determined by non-linear fit to the Michaelis-Menten equation using Graphpad Prism, v8.2.0.
(§2) Triplicate assays were performed for all data points.
(§3) After centrifugation at 15,000 g for 20 minutes, 5 μL of the supernatant were subjected to high-performance liquid chromatography (HPLC) analysis using an Agilent 1260 Infinity II system (Agilent Technologies, Inc., Santa Clara, CA) equipped with an InfinityLab Poroshell 120 EC-C18 column (3.0×150 mm, 2.7 μm) maintained at 35° C. Products were separated with a 15-minute linear gradient of 10% aqueous acetonitrile solution to 100% acetonitrile and monitored at 248 nm using a diode array detector (DAD). Benzaldehyde was identified by comparing the retention time and absorption spectrum with authentic standard.
(§4) Quantitation was achieved by using standard curve generated from authentic standard and product verification was performed by GC-MS. Namely, crude protein extracts were obtained by extraction of petunia petal tissue with buffer A (3:1 [v/w] buffer/tissue). […]

Experiment [4] has as its system Prunus dulcis (almond) benzaldehyde synthase (PdBS), recombinant heterodimer PdBSα (SEQ ID NO: 6) / PdBSβ (SEQ ID NO: 9), wild type, MBP-tagged. The experiment can be described thus: Kinetic parameters of recombinant PdBS (BS activity assay, HPLC; benzoyl-CoA + NADPH to benzaldehyde). The format is biochemical. Conditions: measured at 4 mM NADPH. The protocol: as §1, §2, §3
Quantitation was achieved by using standard curve generated from authentic standard and product verification was performed by GC-MS. Namely, crude protein extracts were obtained by extraction of petunia petal tissue with buffer A (3:1 [v/w] buffer/tissue). After centrifugation of slurry at 15,000 g for 20 minutes, the supernatant was desalted with Econo-Pac 10DG Columns (Bio-Rad Laboratories, Inc., Hercules, CA) according to the manufacturer's protocol and 20 μL of desalted protein was used in BS activity assays. The reaction was performed for 30 minutes at 28° C. and the product was extracted with 200 μL DCM containing 1 μg naphthalene (internal standard). After centrifugation at 15,000 g for 20 minutes, 2 μL of the bottom DCM phase was injected in GC-MS. […]

For experiment [5], the system named is Petunia hybrida benzaldehyde synthase (PhBS), recombinant heterodimer PhBSα (SEQ ID NO: 1) / PhBSβ (SEQ ID NO: 2), wild type, MBP-tagged. The experiment can be described thus: Kinetic parameters of recombinant PhBS (BS activity assay, HPLC; benzoyl-CoA + NADPH to benzaldehyde). The format is biochemical. Conditions: measured at 4 mM NADPH. The method, then: as §1, §2, §3, §4

Setting [6] is: assuming one catalytic center per heterodimer of BS.

Turning to `O=CCc1ccccc1` [Phenylacetaldehyde (D7 + D8, 97 + 98), Phenylacetaldehyde], the “reduction of emission in pds-bsα-bsβ flowers relative to pds control” value in experiment [1] amounted to 41.2%.

In the case of `O=C(O)c1ccccc1` [benzoic acid], the “benzaldehyde formation by crude extracts” value in experiment [2] was “No benzaldehyde was formed”.

Consider `CC(C)(COP(=O)(O)OP(=O)(O)OC[C@H]1O[C@@H](n2cnc3c(N)ncnc32)[C@H](O)[C@@H]1OP(=O)(O)O)[C@@H](O)C(=O)NCCC(=O)NCCSC(=O)c1ccccc1` [benzoyl-CoA], for which the “Vmax (benzoyl-CoA)” value worked out at 13.2 ± 3.0 nKat/mg in experiment [3]; 35.4 ± 1.3 nKat/mg in experiment [4] (pH 6.5, 28° C.); 63.5 ± 2.7 nKat/mg in experiment [5] (pH 6.5, 28° C.). The “kcat (benzoyl-CoA)” value in experiment [4] (setting [6]) was found to be 5.26 ± 0.20 s⁻¹; in experiment [5] (setting [6]), 9.39 ± 0.40 s⁻¹. Also, the Michaelis-Menten constant (Km) in experiment [4] (read-out: Km for benzoyl-CoA, apparent, pH 6.5, 28° C.) was found to be 629 ± 67.7 µM.

As for “nicotinamide adenine dinucleotide phosphate [NADPH]”, the “benzaldehyde formation by crude extracts” value in experiment [2] is reported as “Efficient conversion of benzoyl-CoA to benzaldehyde”.

For the molecule `OCc1ccccc1` [Benzylalcohol (D5, 113), Benzylalcohol], the “reduction of emission in pds-bsα-bsβ flowers relative to pds control” value in experiment [1] amounted to 62.9%.

On to `NC(=O)c1ccc[n+]([C@@H]2O[C@H](COP(=O)([O-])OP(=O)(O)OC[C@H]3O[C@@H](n4cnc5c(N)ncnc54)[C@H](OP(=O)(O)O)[C@@H]3O)[C@@H](O)[C@H]2O)c1` [NADP^+], for which the “benzaldehyde formation by crude extracts” value in experiment [2] is on record as “No benzaldehyde was formed”.

Regarding `NC(=O)c1ccc[n+]([C@@H]2O[C@H](COP(=O)([O-])OP(=O)(O)OC[C@H]3O[C@@H](n4cnc5c(N)ncnc54)[C@H](O)[C@@H]3O)[C@@H](O)[C@H]2O)c1` [NAD^+], the “benzaldehyde formation by crude extracts” value in experiment [2] was “No benzaldehyde was formed”.

In the case of `O=Cc1ccccc1` [Benzaldehyde (D5, 111), Benzaldehyde], the “reduction of emission in pds-bsα-bsβ flowers relative to pds control” value in experiment [1] was determined as 68.3%.

As for `O=C(OCc1ccccc1)c1ccccc1` [benzylbenzoate], the “reduction of emission in pds-bsα-bsβ flowers relative to pds control” value in experiment [1] amounted to 35.6%.

With `O=C(O)C=Cc1ccccc1` [cinnamic acid], the “benzaldehyde formation by crude extracts” value in experiment [2] was “No benzaldehyde was formed”.

The values are drawn from patent US20250034601A1, “HETERODIMERIC BENZALDEHYDE SYNTHASE, METHODS OF PRODUCING, AND USES THEREOF” (Purdue Research Foundation, priority 2021, published 2025).
